Measured values from patent publication US20230364079A1, “COMPOUND AS BRAIN-PERMEABLE BTK OR HER2 INHIBITOR, PREPARATION METHOD THEREFOR, AND USE THEREOF” (CHENGDU HYPERWAY PHARMACEUTICALS CO., LTD., priority 2020, published 2023).
pIC50: −log10 of the molar value.

Key:
BTK wild-type kinase = BTK wild-type kinase (Homo sapiens (Human), UniProt Q06187); assay: BTK kinase activity inhibition test in vitro (Caliper EZ Reader); type: biochemical
How it was run: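 Compound (10 mM DMSO stock) preincubated with kinase 10 min at room temperature, then ATP plus kinase substrate 2 added, 10 min reaction at room temperature before stop. Substrate conversion read by Caliper mobility shift; inhibition normalised to no-enzyme and no-compound controls, IC50 by variable-slope log(inhibitor) fit.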

[1] = target: BTK mutation-type C481S kinase (Homo sapiens (Human), UniProt Q06187, C481S); assay: BTK-C481S kinase activity inhibition test in vitro (Caliper EZ Reader); type: biochemical
Protocol: In the tests on the activity of inhibiting BTK and HER2 kinase in vitro in the examples of the present disclosure, powder of the compound was dissolved in 100% DMSO to prepare a 10 mM stock solution and stored at-20° C. in the dark. […] In addition, the compounds were subjected to experiments such as liver microsome metabolic stability, rat PK, rat brain penetration rate, and drug efficacy model in the examples of the present disclosure.
Compound powders were dissolved in 100% DMSO to make 10 mM stock solutions, which were stored at -20° C. in the dark.
2: Kinase Reaction Process
(1) Preparation of 1 × Kinase buffer.
(5) After centrifugation at 1000 rpm for 30 seconds, the reaction plate was shaken to mix well and incubated at room temperature for 10 min.
(6) A 5/3-fold final concentration of a mixed solution of ATP and Kinase substrate 2 was prepared with 1 × Kinase buffer.
(7) 15 µL of the mixed solution of ATP and substrate with 5/3-fold final concentration was added to start the reaction.
(8) The 384-well plate was centrifuged at 1000 rpm for 30 seconds, shaken to mix well, and incubated at room temperature for 10 min.
(9) 30 µL of a stop solution was added to stop the kinase reaction, and after centrifugation at 1000 rpm for 30 seconds, the plate was shaken to mix well;
(10) The conversion rate was read with Caliper EZ Reader.
where Conversion%_sample indicates the conversion rate reading of the sample; Conversion%_min is the average reading of the negative control wells, representing the conversion rate reading of the wells without enzyme activity; Conversion%_max is the average reading of the ratio of the positive control wells, representing the conversion rate reading of the wells without compound inhibition.
Dose-Response Curve Fitting
With the log value of the concentration as the X-axis, and the percentage inhibition rate as the Y-axis, the dose-effect curve was fitted using the log(inhibitor) vs. response-Variable slope of the analysis software GraphPad Prism 5, so as to determine the IC50 value of each compound on the enzyme activity.
The calculation formula was: […]

[2] = Liver microsome metabolic stability test, rat; type: in vitro ADME; settings: for microsomal CLint / half-life: liver microsomes; for half-life: read-out: T½
Protocol: (§1) 1: To the sample wells of T0, T5, T10, T20, T30, T60 and NCF60, 10 µL of the test or reference working solution and 80 µL of microsome working solution (hepatic microsome with a protein concentration of 0.5 mg/mL) were added, and to Blank60 well, only the microsome working solution was added. Then samples of the Blank60, T5, T10, T20, T30 and T60 other than T0 and NCF60 were placed in a 37° C. water bath and pre-incubated for about 10 min.
(§2) 2: To the T0 sample well, 300 µL of stop solution (containing 200 ng/mL tolbutamide and 200 ng/mL labetalol in acetonitrile solution) was added first, followed by 10 µL of NADPH regeneration system working solution.
(§3) 3: After the pre-incubation of Blank60, T5, T10, T20, T30 and T60 incubation plates, 10 µL of NADPH regeneration system working solution was added to each sample well to start the reaction, and 10 µL of 100 mM potassium phosphate buffer was added to the NCF60 sample well.
(§4) 4: After incubation for an appropriate time (such as 5, 10, 20, 30 and 60 min), to each test sample well and control well of the Blank60, T5, T10, T20, T30, T60 and NCF60 plates, 300 µL of stop solution was added to terminate the reaction.
(§5) 5: All sample plates were shaken to mix well and centrifuged at 4000 rpm for 20 min, and 100 µL of the supernatant of the test sample or control sample was taken and diluted with 300 µL of pure water for LC-MS/MS analysis.
(§6) 6: Data analysis: T½ and CLint(mic) (µL/min/mg) values were calculated according to the first-order elimination kinetics. The first-order elimination kinetics equation was: […]

[3] = Liver microsome metabolic stability test, human; type: in vitro ADME; settings: for microsomal CLint / half-life: liver microsomes; for half-life: read-out: T½
Protocol: as §1, §2, §3, §4, §5, §6

[4] = Pharmacokinetic test, oral, SD rats; type: in vivo; settings: oral 10 mg/kg, plasma; for AUC(0-inf) / Cmax / half-life: rat; for Cmax: read-out: Cmax; for half-life: read-out: T½ (converted)
Protocol: Each test compound was administered orally (10 mg/kg, 3 rats in each group) to SD rats for pharmacokinetic study. […] Animals were fasted overnight before oral administration, and fed again after 4 h of administration. […] At each collection time point, 3 whole blood samples were collected at a the collection volume of about 0.2-0.3 mL. […] The collected plasma was stored at -20° C. before analysis. 20 µL of plasma sample was added into a 1.6 mL 96-well deep-well plate, added with 200 µL of working internal standard solution (the same volume of vehicle was added to the blank instead of internal standard), vortexed for 1 min, and centrifuged at 5800 rpm for 10 min. 100 µL of the supernatant was added to a 96-well injection plate for LC-MS/MS analysis.

BTK mutation-type C481S kinase, sequence (Q06187 whole entry C481S): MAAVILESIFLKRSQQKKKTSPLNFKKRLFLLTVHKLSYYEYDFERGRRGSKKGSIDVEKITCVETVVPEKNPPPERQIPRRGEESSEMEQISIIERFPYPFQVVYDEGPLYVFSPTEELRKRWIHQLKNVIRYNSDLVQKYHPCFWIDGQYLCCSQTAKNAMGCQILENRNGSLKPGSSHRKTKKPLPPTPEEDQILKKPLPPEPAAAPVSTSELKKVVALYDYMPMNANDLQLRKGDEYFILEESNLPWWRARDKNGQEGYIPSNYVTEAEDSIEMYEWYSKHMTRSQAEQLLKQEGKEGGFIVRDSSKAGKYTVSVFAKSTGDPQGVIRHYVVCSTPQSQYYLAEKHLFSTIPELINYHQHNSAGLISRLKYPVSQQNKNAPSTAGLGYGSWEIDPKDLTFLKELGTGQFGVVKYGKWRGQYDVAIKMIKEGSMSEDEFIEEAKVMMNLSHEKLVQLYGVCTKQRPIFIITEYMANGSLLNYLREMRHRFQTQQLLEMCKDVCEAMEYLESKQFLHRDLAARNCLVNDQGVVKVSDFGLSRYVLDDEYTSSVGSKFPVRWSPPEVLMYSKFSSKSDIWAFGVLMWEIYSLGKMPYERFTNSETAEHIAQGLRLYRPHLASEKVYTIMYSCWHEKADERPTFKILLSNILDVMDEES
BTK wild-type kinase, sequence (Q06187 whole entry): as the sequence (Q06187 whole entry C481S) above, with S481C counted along it

Compound | pIC50 (BTK wild-type kinase) | pIC50 [1] | half-life ([2]; 0.5 mg/mL protein) | half-life ([3]; 0.5 mg/mL protein) | %Remaining (60 min) [2] | %Remaining (60 min) [3] | other results
Nc1cccc(NC(=O)c2ccc(-c3nc([C@@H]4CC[C@@H](CO)OC4)n4ccnc(N)c34)cc2)n1 (single isomer, unassigned) [Compound 2-A-P2] | 7.00 to 7.70 | 7.00 to 7.70 | – | – | – | – | –
COc1ccccc1C(=O)NCc1ccc(-c2nn(C3CCC(CO)OC3)c3ncnc(N)c23)cc1 (single isomer, unassigned) [Compound 60-A] | 7.70 to 8.30 | – | 143 min | > 145 min | – | – | microsomal CLint [2]: 9.7 µL/min/mg; microsomal CLint [3]: < 9.6 µL/min/mg
Nc1nccn2c(C3CCC(CO)OC3)nc(-c3ccc(C(=O)Nc4cc(C(F)(F)F)ccn4)cc3)c12 (single isomer, unassigned) [Compound 109-P1] | > 8.30 | > 8.30 | 114 min | > 145 min | 72.7% | 85.4% | microsomal CLint [2]: 12.2 µL/min/mg; Cl [4]: 1.62 mL/min/kg; AUC(0-inf) [4]: 104000 ng·h/mL; Cmax [4]: 16700 ng/mL; half-life [4]: 170 min; microsomal CLint [3]: < 9.6 µL/min/mg
Nc1nccn2c(C3CC[C@@H](CO)OC3)nc(-c3ccc(C(=O)Nc4ccccn4)cc3F)c12 (some centres unmarked) [Compound 1-B] | 7.00 to 7.70 | 7.70 to 8.30 | – | – | 63.7% | 99.9% | CLint [2]: 18.2 µL/min/mg; T½ ([2]; 0.5 mg/mL protein): 76.1 min; CLint [3]: <9.6 µL/min/mg; T½ ([3]; 0.5 mg/mL protein): >145 min
COc1cccc(Oc2ccc(-c3nc(C4CCC(CO)OC4)n4ccnc(N)c34)cc2)c1F (centres unmarked) [Compound 5] | > 8.30 | > 8.30 | 11.4 min | 35.7 min | 12.7% | 31.7% | Cl [4]: 69.13 mL/min/kg; AUC(0-inf) [4]: 2520 ng·h/mL; Cmax [4]: 463 ng/mL; half-life [4]: 70.2 min
[2H]C([2H])([2H])Oc1cccc(Oc2ccc(-c3nc(C4CCC(CO)OC4)n4ccnc(N)c34)cc2)c1F (centres unmarked) [Compound 7] | > 8.30 | > 8.30 | – | – | – | – | –
Nc1nccn2c(C3CCC(CO)OC3)nc(-c3ccc(Oc4cccc(F)c4F)cc3)c12 (centres unmarked) [Compound 8] | > 8.30 | > 8.30 | 20.8 min | 40.9 min | 13.6% | 37.4% | –
Nc1nccn2c(C3CCC(CO)OC3)nc(-c3ccc(Oc4cccc(Cl)c4F)cc3)c12 (centres unmarked) [Compound 9] | – | – | 12.2 min | 28.6 min | 3.2% | 24.5% | –
COc1cccc(Oc2ccc(-c3nc(C4CCC(CO)OC4)n4c(Cl)cnc(N)c34)cc2)c1F (centres unmarked) [Compound 12] | – | – | 11.8 min | 11.1 min | 3.0% | 2.6% | –
Nc1nccn2c(C3CCC(CO)OC3)nc(-c3ccc(Oc4ccccc4)cc3)c12 (centres unmarked) [Compound 16] | 7.70 to 8.30 | – | 21.7 min | 37.5 min | 14.6% | 31.8% | –
Nc1nccn2c(C3CCC(CO)OC3)nc(-c3ccc(Oc4ccccc4)cc3F)c12 (centres unmarked) [Compound 17] | 7.70 to 8.30 | 7.70 to 8.30 | – | – | – | – | –
Nc1nccn2c(C3CCC(CO)OC3)nc(-c3ccc(Oc4cccc(C(F)(F)F)c4F)cc3)c12 (centres unmarked) [Compound 19] | 7.70 to 8.30 | – | 16.7 min | 29.4 min | 7.9% | 23.5% | –
